10 molecules from ChEMBL document CHEMBL5465560, “Selectivity Literature for EUbOPEN Chemogenomic Library” (2024) can be followed below.

Structures are written as SMILES.

Broadly, the IC50 is the concentration at which inhibition is half-maximal. Low values mean higher potency, high ones lower potency.

Test [1] addresses Serine/threonine-protein kinase tousled-like 2 (Homo sapiens) (UniProt Q86UE8). Put plainly: Selectivity interaction (KinomeScan (DiscoverX)) EUB0000595a TLK2. Particulars: at 10 µM.
Test [2] addresses Ribosomal protein S6 kinase alpha-4 (Homo sapiens) (UniProt O75676). The settings on record: at 10 µM.
In test [3] the test system is RAF proto-oncogene serine/threonine-protein kinase (Homo sapiens), P04049 [Y340D,Y341D]. Put plainly: Selectivity interaction (SelectScreen profiling (Invitrogen)) EUB0000607a RAF1. The settings on record: at 2 µM.
Test [4] addresses Tyrosine-protein kinase ABL1 (Homo sapiens, UniProt P00519). Particulars: at 10 µM.
The subject of test [5] is Hepatocyte growth factor receptor (Homo sapiens), P08581 [Y1235D]. Particulars: at 10 µM.
The target in test [6] is Calcium/calmodulin-dependent protein kinase kinase 1 (Homo sapiens) (UniProt Q8N5S9). Kind of test: Selectivity interaction (KinomeScan (DiscoverX)) EUB0000045b CAMKK1.
Test [7] concerns the target Hepatocyte growth factor-like protein (Homo sapiens) (UniProt P26927). Put plainly: Selectivity interaction (Ambit KINOMEscan and KiNATiv profiling in Jurkat cells) EUB0000090b MST1. The format is cell-based. Particulars: at 1 µM.
Test [8] has as its target Serine/threonine-protein kinase SIK2 (Homo sapiens) (UniProt Q9H0K1). Kind of test: Selectivity interaction (Ambit KINOMEscan and KiNATiv profiling in Jurkat cells) EUB0000090b SIK2. The format is cell-based. The settings on record: at 1 µM.
For test [9], the target named is MAP kinase-activated protein kinase 2 (Homo sapiens, UniProt P49137).
In test [10] the target is T1, Mitogen-activated protein kinase kinase kinase 12 (Homo sapiens) (UniProt Q12852).
T1 sequence (whole entry): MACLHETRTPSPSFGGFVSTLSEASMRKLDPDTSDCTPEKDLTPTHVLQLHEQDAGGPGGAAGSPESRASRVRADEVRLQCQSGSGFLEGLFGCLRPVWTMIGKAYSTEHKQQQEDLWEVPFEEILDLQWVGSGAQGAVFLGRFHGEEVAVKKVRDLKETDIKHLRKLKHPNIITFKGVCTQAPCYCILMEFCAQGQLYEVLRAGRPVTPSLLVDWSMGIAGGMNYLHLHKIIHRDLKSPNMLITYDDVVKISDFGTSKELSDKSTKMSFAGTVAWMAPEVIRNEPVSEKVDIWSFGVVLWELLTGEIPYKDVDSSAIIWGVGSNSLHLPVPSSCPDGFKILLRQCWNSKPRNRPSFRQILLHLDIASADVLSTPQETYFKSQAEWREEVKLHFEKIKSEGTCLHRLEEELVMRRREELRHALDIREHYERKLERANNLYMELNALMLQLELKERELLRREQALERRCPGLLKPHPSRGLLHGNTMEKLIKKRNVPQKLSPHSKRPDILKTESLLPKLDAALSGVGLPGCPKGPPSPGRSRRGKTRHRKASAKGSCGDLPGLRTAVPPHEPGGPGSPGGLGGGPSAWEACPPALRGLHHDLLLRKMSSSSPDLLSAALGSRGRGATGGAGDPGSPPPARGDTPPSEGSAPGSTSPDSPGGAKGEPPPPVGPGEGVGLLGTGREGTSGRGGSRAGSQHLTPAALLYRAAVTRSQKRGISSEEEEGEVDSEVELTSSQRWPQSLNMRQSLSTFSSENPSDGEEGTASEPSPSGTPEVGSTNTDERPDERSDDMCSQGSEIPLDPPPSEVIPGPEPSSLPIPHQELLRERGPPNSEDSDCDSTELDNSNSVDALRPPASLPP
Kind of test: Selectivity interaction (KinomeScan (DiscoverX)) EUB0000655a MAP3K12. Particulars: at 10 µM.

The target in test [11] is T2, Serine/threonine-protein kinase D3 (Homo sapiens) (UniProt O94806).
T2 sequence (whole entry): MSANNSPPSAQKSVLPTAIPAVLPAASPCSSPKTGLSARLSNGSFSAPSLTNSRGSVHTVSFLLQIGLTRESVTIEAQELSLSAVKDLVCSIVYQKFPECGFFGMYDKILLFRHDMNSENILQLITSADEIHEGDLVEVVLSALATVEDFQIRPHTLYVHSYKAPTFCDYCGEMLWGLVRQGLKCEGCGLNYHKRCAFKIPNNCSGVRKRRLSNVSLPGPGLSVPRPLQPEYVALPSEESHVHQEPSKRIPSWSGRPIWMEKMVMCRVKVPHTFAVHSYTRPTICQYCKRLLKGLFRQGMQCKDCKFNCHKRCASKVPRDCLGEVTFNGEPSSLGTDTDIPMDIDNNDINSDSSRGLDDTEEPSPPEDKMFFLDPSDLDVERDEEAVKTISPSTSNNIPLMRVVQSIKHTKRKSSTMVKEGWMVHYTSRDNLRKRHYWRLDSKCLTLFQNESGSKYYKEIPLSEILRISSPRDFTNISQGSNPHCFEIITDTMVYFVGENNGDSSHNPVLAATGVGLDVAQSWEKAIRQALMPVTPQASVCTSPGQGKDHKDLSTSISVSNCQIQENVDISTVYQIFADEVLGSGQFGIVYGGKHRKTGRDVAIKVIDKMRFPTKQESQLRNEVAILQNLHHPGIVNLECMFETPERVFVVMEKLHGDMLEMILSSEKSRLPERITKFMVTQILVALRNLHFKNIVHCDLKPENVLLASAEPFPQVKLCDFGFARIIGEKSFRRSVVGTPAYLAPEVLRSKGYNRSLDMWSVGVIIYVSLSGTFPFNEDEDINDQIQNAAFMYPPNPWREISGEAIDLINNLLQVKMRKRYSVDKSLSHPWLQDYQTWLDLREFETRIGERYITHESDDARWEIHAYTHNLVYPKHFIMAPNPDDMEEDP
Kind of test: Selectivity interaction (KinomeScan (DiscoverX)) EUB0000655a PRKD3. The settings on record: at 10 µM.

Test [12] concerns the target 5-hydroxytryptamine receptor 1D (Homo sapiens) (UniProt P28221). Kind of test: Selectivity interaction (GPCR panel (PDSP screen)) EUB0001079a HTR1D. The settings on record: at 10 µM.
The target in test [13] is Tyrosine-protein kinase Fer (Homo sapiens) (UniProt P16591). Put plainly: Selectivity interaction (Kinase panel (KiNativ target engagement assay in Jurkat cells)) EUB0001635a FER. It counts as cell-based. The settings on record: Selectivity number of off-targets 0.0, Selectivity number of targets 233.0, Source Knowledge https://www.sciencedirect.com/science/article/pii/S2451945619300674?via%3Dihub, at 1 µM.

The target in test [14] is Cyclin-dependent kinase 16 (Homo sapiens) (UniProt Q00536). Put plainly: Selectivity interaction (Kinase panel (KiNativ target engagement assay in Jurkat cells)) EUB0001635a CDK16. The format is cell-based. Particulars: Selectivity number of off-targets 0.0, Selectivity number of targets 233.0, Source Knowledge https://www.sciencedirect.com/science/article/pii/S2451945619300674?via%3Dihub, at 1 µM.
Cyclin-dependent kinase 16 (Homo sapiens), sequence (Q00536 whole entry): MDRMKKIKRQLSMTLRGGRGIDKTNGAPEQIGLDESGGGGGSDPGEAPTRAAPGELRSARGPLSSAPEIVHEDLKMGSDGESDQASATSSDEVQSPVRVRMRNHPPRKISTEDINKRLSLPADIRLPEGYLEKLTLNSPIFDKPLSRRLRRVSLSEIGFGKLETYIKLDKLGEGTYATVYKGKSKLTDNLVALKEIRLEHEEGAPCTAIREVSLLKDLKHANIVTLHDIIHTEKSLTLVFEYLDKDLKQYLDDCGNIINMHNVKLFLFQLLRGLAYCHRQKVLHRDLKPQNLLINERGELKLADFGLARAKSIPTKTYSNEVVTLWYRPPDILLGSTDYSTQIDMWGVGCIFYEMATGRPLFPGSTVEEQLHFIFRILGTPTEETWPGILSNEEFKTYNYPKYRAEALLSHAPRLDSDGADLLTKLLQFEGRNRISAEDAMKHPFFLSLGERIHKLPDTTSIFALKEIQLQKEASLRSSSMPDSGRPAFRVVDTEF

Calcium/calmodulin-dependent protein kinase kinase 1 (Homo sapiens), sequence (Q8N5S9 whole entry, looked up): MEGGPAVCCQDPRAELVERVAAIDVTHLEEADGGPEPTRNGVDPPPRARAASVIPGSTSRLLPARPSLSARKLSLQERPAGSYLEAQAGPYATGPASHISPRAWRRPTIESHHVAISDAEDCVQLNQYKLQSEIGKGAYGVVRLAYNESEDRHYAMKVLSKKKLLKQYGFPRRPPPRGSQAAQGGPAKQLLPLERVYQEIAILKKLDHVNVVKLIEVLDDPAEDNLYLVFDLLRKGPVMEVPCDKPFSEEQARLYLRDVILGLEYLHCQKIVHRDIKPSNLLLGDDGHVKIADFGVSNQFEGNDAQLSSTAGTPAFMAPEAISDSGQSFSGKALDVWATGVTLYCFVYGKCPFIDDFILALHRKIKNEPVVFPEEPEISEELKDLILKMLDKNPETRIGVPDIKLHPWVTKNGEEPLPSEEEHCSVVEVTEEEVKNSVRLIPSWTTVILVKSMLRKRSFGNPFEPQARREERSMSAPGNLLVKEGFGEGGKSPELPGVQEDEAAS
Tyrosine-protein kinase ABL1, sequence (P00519 whole entry): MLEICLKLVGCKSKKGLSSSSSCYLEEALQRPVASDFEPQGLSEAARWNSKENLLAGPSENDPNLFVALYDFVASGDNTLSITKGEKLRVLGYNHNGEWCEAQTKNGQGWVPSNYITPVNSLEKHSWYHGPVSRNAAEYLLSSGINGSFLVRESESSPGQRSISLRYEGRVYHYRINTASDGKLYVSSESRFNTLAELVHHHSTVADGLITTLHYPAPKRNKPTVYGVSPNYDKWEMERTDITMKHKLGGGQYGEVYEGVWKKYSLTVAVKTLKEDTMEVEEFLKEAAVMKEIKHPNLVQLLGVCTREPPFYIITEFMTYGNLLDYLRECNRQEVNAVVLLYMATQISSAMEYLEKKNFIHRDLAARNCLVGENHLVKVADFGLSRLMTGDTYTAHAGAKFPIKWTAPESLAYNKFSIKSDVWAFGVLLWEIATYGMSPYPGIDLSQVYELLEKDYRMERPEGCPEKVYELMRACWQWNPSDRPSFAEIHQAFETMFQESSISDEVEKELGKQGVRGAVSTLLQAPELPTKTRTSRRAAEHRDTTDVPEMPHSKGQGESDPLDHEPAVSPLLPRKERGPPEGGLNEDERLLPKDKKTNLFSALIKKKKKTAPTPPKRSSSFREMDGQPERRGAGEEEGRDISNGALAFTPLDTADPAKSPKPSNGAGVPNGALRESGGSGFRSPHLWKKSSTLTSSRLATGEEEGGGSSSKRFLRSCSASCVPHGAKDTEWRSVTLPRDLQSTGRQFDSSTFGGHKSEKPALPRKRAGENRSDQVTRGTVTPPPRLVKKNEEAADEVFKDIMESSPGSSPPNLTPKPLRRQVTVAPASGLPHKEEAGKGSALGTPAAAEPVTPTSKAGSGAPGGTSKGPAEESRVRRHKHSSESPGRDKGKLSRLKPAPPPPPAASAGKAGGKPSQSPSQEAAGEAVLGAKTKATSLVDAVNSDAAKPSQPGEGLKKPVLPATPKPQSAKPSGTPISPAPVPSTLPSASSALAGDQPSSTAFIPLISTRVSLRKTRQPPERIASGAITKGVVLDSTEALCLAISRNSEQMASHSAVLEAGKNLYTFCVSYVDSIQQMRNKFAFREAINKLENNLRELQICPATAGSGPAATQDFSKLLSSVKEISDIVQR
MAP kinase-activated protein kinase 2, sequence (P49137 whole entry): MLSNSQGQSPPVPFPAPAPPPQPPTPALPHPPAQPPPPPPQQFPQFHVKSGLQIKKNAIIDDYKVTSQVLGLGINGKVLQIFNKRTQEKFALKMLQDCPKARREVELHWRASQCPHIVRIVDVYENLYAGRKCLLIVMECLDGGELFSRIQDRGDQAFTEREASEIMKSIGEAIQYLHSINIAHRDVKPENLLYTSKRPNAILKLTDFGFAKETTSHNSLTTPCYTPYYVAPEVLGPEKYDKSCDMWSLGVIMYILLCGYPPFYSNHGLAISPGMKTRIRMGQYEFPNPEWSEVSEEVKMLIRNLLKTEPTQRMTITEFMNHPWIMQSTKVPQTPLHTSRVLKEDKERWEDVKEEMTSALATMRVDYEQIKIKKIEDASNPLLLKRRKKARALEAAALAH
Hepatocyte growth factor receptor (Homo sapiens), P08581 [Y1235D], sequence (P08581 whole entry Y1235D): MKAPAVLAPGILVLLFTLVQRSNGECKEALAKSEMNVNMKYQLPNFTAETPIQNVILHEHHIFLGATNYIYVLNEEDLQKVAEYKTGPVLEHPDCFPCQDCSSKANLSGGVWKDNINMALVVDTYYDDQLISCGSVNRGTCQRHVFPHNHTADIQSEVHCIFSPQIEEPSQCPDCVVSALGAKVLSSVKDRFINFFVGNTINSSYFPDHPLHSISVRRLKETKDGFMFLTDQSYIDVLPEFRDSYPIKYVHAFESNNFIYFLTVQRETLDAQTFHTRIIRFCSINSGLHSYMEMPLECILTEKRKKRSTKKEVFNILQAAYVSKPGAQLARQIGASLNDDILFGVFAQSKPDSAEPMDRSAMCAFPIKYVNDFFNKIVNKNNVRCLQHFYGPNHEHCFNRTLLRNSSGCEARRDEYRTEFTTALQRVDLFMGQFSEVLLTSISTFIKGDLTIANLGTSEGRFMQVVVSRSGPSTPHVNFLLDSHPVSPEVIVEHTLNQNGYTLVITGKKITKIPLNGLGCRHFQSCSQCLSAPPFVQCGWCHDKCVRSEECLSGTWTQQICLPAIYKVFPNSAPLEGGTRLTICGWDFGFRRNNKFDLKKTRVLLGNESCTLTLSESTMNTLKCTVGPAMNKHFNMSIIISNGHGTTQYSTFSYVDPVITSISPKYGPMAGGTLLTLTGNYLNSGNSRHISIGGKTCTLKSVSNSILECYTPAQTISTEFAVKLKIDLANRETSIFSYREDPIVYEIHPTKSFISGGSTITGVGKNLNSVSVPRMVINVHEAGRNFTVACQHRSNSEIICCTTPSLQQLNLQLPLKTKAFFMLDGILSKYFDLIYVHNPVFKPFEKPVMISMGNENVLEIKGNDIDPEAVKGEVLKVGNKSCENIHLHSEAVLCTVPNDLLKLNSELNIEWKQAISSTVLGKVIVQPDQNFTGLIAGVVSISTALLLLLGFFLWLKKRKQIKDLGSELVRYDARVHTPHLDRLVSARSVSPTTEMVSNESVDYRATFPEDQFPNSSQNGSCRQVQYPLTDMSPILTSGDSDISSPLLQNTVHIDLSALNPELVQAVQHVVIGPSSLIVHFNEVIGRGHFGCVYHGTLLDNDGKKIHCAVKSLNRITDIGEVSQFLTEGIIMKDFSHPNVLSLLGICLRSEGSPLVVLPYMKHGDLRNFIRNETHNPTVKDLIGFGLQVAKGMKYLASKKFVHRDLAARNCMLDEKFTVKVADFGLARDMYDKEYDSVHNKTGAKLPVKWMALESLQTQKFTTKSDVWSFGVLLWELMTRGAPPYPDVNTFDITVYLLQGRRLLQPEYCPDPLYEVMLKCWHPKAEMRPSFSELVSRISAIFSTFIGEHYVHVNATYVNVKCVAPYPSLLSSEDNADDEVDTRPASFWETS
Tyrosine-protein kinase Fer (Homo sapiens), sequence (P16591 whole entry, looked up): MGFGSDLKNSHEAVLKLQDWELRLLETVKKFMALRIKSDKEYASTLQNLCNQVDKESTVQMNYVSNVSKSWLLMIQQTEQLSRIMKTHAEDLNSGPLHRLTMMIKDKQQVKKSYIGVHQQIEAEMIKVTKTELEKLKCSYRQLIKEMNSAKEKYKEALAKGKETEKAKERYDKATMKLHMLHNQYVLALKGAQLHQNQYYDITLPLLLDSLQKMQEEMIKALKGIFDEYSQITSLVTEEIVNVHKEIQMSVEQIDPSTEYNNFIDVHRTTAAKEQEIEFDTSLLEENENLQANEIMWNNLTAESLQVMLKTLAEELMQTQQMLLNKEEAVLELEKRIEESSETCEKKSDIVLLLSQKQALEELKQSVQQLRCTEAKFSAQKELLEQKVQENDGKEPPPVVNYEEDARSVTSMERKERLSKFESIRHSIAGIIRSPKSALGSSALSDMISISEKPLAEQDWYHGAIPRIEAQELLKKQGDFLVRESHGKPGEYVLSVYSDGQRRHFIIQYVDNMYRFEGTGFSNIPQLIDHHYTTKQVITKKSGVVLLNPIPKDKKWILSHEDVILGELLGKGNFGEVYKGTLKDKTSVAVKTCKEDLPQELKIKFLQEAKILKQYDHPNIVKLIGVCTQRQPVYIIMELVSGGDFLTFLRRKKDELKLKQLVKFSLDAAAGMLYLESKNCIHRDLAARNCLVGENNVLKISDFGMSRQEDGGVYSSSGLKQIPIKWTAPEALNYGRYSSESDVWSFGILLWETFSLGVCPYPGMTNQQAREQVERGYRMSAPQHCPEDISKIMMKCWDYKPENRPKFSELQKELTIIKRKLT

In turn, `COCC(=O)NC/C=C/c1ccc2ncnc(Nc3ccc(Oc4ccc(C)nc4)c(C)c3)c2c1` [CP-724714] yielded a % of control in [1] of 100%. With `CCN(CC)CCCCNc1ncc2cc(-c3cc(OC)cc(OC)c3)c(NC(=O)NC(C)(C)C)nc2n1`, the % of control in [2] is 100%.

For `CNC(=O)Nc1ccc(-c2nc(N3CC4CCC(C3)O4)c3cnn(C4CCC5(CC4)OCCO5)c3n2)cc1`, the % of inhibition in test [3] came to 12%. Take `Cc1cc([C@@H](C)Nc2ccccc2C(=O)O)c2nc(N3CCOCC3)cc(=O)n2c1` [AZD-6482]: the % of control in test [4] came out at 100%; in test [5] it was 78%. With `C=CC(=O)Nc1cc(-n2c(=O)ccc3cnc4ccc(-c5ccc(NS(C)(=O)=O)cc5)cc4c32)ccc1C`, the figures for the % of control in test [6] (at 1 µM) and in test [6] (at 10 µM) were 100% and 74%, respectively. Consider `CN(C)C/C=C/C(=O)Nc1ccc(C(=O)N2CCCC(Nc3ncc(Cl)c(-c4c[nH]c5ccccc45)n3)C2)cc1` (stereo not given), for which the % of control was determined as 78% in test [7] and 93% in test [8]. In [9], `CCc1cccc(CC)c1NC(=O)c1nn(C)c2c1CCc1cnc(Nc3ccc(C(=O)NC4CCN(C)CC4)cc3OC(F)(F)F)nc1-2` yielded an IC50 above 10 µM. With `CN(C)CCOc1ccc(-c2nc(-c3ccncc3)c(-c3ccc4c(c3)CC/C4=N\O)[nH]2)cc1`, the results for the % of control in test [10] and in test [11] were 49% and 40%, respectively. In turn, `Nc1cnc(N2CCc3cc(S(=O)(=O)Nc4c(F)cc(Cl)cc4F)cc(N4CCCC4=O)c32)nc1` [TP-020n] registered a % of inhibition in test [12] of 9.24%. Regarding `C=CC(=O)Nc1ccc(C(=O)Nc2[nH]nc3c2CN(C(=O)N[C@H](CN(C)C)c2ccccc2)C3(C)C)cc1`, the % of engagement in test [13] was -2.6%; in [14], 2.3%.
